Assay: xn = mol fraction of the nth substance listed
Conditions: 101 kPa

CS(C)=O + CC#N
viscosity [mPa·s]
Conditions | 298 K | 298.15 K | 303.15 K | 308 K | 308.15 K | 313.15 K | 318 K | 318.15 K
x1 = 0.2 | 0.5206 | 0.477 | – | – | – | – | 0.3814 | –
x1 = 0.4 | 0.8409 | 0.687 | – | 0.6302 | – | – | 0.4513 | –
x1 = 0.6 | 1.16 | 0.987 | – | 0.8402 | – | – | – | –
x1 = 0.8 | 1.42 | 1.42 | – | 1.161 | – | – | 0.8203 | –
x2 = 0.0249 | – | 1.911 | 1.762 | – | 1.61 | 1.484 | – | 1.348
x2 = 0.0518 | – | 1.824 | 1.684 | – | 1.544 | 1.425 | – | 1.295
x2 = 0.0759 | – | 1.75 | 1.617 | – | 1.485 | 1.371 | – | 1.247
x2 = 0.1079 | – | 1.658 | 1.531 | – | 1.405 | 1.298 | – | 1.18
x2 = 0.157 | – | 1.527 | 1.406 | – | – | – | – | 1.082
x2 = 0.1998 | – | 1.422 | 1.306 | – | 1.194 | 1.098 | – | 1
x2 = 0.2609 | – | 1.281 | – | – | 1.066 | 0.9759 | – | 0.8875
x2 = 0.3034 | – | 1.188 | 1.085 | – | 0.9838 | 0.898 | – | 0.8161
x2 = 0.3548 | – | 1.082 | 0.9867 | – | 0.8905 | 0.8098 | – | 0.7348
x2 = 0.411 | – | 0.9742 | 0.8848 | – | 0.7978 | 0.7219 | – | 0.6547
x2 = 0.4696 | – | 0.8699 | 0.7875 | – | 0.7092 | 0.6398 | – | 0.5794
x2 = 0.5084 | – | 0.8053 | 0.7285 | – | 0.6554 | 0.591 | – | 0.5348
x2 = 0.5566 | – | 0.7292 | 0.6595 | – | 0.5949 | 0.5366 | – | 0.4864
x2 = 0.6053 | – | 0.6586 | 0.5945 | – | 0.5379 | 0.4862 | – | 0.4403
x2 = 0.6666 | – | 0.5821 | 0.5266 | – | 0.4786 | 0.435 | – | 0.3971
x2 = 0.7114 | – | 0.5345 | 0.4841 | – | 0.4428 | 0.4044 | – | 0.37
x2 = 0.7688 | – | 0.4819 | 0.4392 | – | 0.4048 | 0.3727 | – | 0.3423
x2 = 0.8081 | – | 0.4514 | 0.4129 | – | 0.3833 | 0.3554 | – | 0.3298
x2 = 0.851 | – | 0.4225 | 0.3905 | – | 0.3645 | 0.3396 | – | 0.3178
x2 = 0.9009 | – | 0.3934 | 0.368 | – | 0.3459 | 0.3257 | – | 0.3062
x2 = 0.9502 | – | 0.3658 | 0.3478 | – | 0.3285 | – | – | –
